How the values were obtained:
Format in all cases: cell-based, human
[1] = test system: reconstructed epidermises from donors of 1 month of age; assay: Histological analysis (haematoxylin and eosin) of thickness of live cell layers of treated reconstructed epidermises; details: histology, reconstructed epidermis from 1-month-old donors, applied for 16 hours, control = 100%, SDS at 0.4%
Experimental: (§1) Reconstructed skin models were generated using these samples. Reconstructed epidermises were thus produced with the various donors selected using the technique by Poumay et al. (Arch Dermatol Res, 296(5): 203-211, 2004). After two days of submerged culture, the reconstructed epidermises were cultured at the air/liquid interface for 5 or 9 days. For the duration of the culture, the medium was replenished every 2 to 3 days.
(§2) Epidermises were reconstructed as specified in example 1 with keratinocytes from donors of 1 month of age. The products, a cleansing cream and a moisturising lotion both containing avocado perseose, were applied on these reconstructed epidermises for 16 hours. A control was produced by applying 0.4% SDS on control reconstructed epidermis samples.
(§3) IL-8 protein was assayed in the culture supernatant using an Elisa test. The cell viability was evaluated using the MTT test. Finally, a histological analysis was conducted on tissues included in paraffin by means of haematoxylin and eosin staining.

[2] = test system: reconstructed epidermises from donors of 1 month of age; assay: Cell viability (MTT test) of reconstructed epidermises after product application; details: reconstructed epidermis from 1-month-old donors, applied for 16 hours
Experimental: as §1, §2, §3

[3] = test system: IL-8 protein; assay: IL-8 protein assay in culture supernatant (Elisa test) of treated reconstructed epidermises; details: reconstructed epidermis from 1-month-old donors, applied for 16 hours
Experimental: as §1, §2, §3

Q: For `CCCCCCCCCCCCOS(=O)(=O)[O-].[Na+]` [SDS], which “Thickness of live layers” value [1] is on record?
A: Its value is 58%.

Q: And the Viability ([2]; MTT test, control = 100%, SDS at 0.4%)?
A: The Viability was 2%.

Q: What about the “Effect on cell viability (in words)” value [2] of the same compound?
A: The value was “very significantly reduced”.

Q: What about the IL8 inflammatory molecule ([3]; Elisa in culture supernatant, control = 100%, SDS at 0.4%) of the same compound?
A: Its IL8 inflammatory molecule is 602%.

Q: What about the “Effect on IL-8 expression (in words)” value [3] of the same compound?
A: The value was “significant increase”.

Source: US12584905B2, “Method for identifying molecular markers of children's skin” (LABORATOIRES EXPANSCIENCE, priority 2012, dated 2026)
